# Legend:
# human ALX receptor = target: T1, human ALX receptor (Homo sapiens, UniProt P25090); assay: Intracellular calcium measurements (FLIPR), agonistic activity in HEK293-hALXR-Gα16 cells; type: cell-based; details: Fluo-4 calcium FLIPR, normalized to WKYMVm 10 nM
# T1 construct: expressed in transfected cells; host or cells: HEK293 (HEK293-hALXR-Gα16)
# T1 sequence (P25090 1-351): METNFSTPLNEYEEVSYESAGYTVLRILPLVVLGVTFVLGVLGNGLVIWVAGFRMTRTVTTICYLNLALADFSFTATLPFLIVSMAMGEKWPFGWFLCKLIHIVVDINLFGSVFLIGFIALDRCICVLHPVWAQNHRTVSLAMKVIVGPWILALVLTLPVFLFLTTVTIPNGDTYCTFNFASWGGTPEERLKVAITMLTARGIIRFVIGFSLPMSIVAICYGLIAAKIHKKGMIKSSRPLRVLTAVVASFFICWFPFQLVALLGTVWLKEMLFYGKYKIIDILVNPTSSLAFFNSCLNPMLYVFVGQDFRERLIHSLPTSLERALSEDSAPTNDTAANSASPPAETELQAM
# Outline: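 Agonist-induced calcium flux was recorded by FLIPR (488/540 nm) in HEK293-hALXR-Gα16 cells pre-loaded with Fluo-4 AM (1 μM, 60 min, 37°C). Peak signal above baseline, after subtracting buffer addition, was expressed relative to WKYMVm at 10 nM final.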
# human FPRL2 = target: T2, human FPRL2 (Homo sapiens, UniProt P25089); assay: Intracellular calcium measurements (FLIPR), agonistic activity in HEK293-hFPRL2-Gα16 cells; type: cell-based; details: Fluo-4 calcium FLIPR, normalized to GLY14-Humanin 100 nM
# T2 construct: expressed in transfected cells; host or cells: HEK293 (HEK293-hFPRL2-Gα16)
# T2 sequence (P25089 1-353): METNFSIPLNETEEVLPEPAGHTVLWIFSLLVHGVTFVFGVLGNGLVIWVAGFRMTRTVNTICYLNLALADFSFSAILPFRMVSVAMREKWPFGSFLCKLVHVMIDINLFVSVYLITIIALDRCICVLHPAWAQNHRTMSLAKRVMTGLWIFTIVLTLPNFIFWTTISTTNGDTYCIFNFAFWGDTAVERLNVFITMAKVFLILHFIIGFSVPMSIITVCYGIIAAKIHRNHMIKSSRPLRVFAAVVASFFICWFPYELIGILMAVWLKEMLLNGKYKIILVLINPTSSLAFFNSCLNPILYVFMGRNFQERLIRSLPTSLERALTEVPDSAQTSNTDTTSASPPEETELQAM
# Outline: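 Peak values after baseline subtraction are expressed relative to 100 nM Gly14-Humanin; compounds diluted in assay buffer from 10 mM DMSO stocks.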
EC50 (human ALX receptor) [µM],EC50 (human FPRL2) [µM],SMILES
0.073,7.98,"CCCCCCNC(=O)[C@H]1[C@H](C(=O)Nc2ccc(Br)cc2)[C@@H]2C=C[C@H]1C21CC1 (racemic) [Example 75, (5R*)—N^5-(4-Bromophenyl)-(6R*)—N^6-(hexyl)-(4S*,7R*)-[4,7-ethenylene-spiro[2.4]heptane]-5,6-dicarboxamide]"
0.077,2.43,"CCn1nc(C)cc1CCNC(=O)[C@H]1[C@H](C(=O)Nc2ccc(Br)cc2)[C@@H]2C=C[C@H]1C21CC1 (racemic) [Example 76, (5R*)—N^5-(4-Bromophenyl)-(6R*)—N^6-(2-(1-ethyl-3-methyl-1H-pyrazol-5-yl)-ethyl)-(4S*,7R*)-[4,7-ethenylene-spiro[2.4]heptane]-5,6-dicarboxamide]"
0.08,5.48,"CCN(CC)CCCNC(=O)[C@H]1[C@H](C(=O)Nc2ccc(Br)cc2)[C@@H]2C=C[C@H]1C21CC1 (racemic) [Example 78, (5R*)—N^5-(4-Bromophenyl)-(6R*)—N^6-(3-diethyl-amino-propyl)-(4S*,7R*)-[4,7-ethenylene-spiro[2.4]heptane]-5,6-dicarboxamide]"
0.097,7.87,"O=C(NCCN1CCOCC1)[C@H]1[C@H](C(=O)Nc2ccc(Br)cc2)[C@@H]2C=C[C@H]1C21CC1 (racemic) [Example 80, (5R*)—N^5-(4-Bromophenyl)-(6R*)—N^6-(2-morpholino-ethyl)-(4S*,7R*)-[4,7-ethenylene-spiro[2.4]heptane]-5,6-dicarboxamide]"
0.123,0.678,"O=C(NC1CCN(Cc2ccccc2)CC1)[C@H]1[C@H](C(=O)Nc2ccc(Br)cc2)[C@@H]2C=C[C@H]1C21CC1 (racemic) [Example 83, (5R*)—N^5-(4-Bromophenyl)-(6R*)—N^6—(N-benzyl-piperidin-4-yl)-(4S*,7R*)-[4,7-ethenylene-spiro[2.4]heptane]-5,6-dicarboxamide]"
0.133,5.5,"CCCCCCN(C)C(=O)[C@H]1[C@H](C(=O)Nc2ccc(Br)cc2)[C@@H]2C=C[C@H]1C21CC1 (racemic) [Example 84, (5R*)—N^5-(4-Bromophenyl)-(6R*)—N^6-methyl-N^6-hexyl-(4S*,7R*)-[4,7-ethenylene-spiro[2.4]heptane]-5,6-dicarboxamide]"
0.146,8.3,"CC(C)(C)CCNC(=O)[C@H]1[C@H](C(=O)Nc2ccc(Br)cc2)[C@@H]2C=C[C@H]1C21CC1 (racemic) [Example 85, (5R*)—N^5-(4-Bromophenyl)-(6R*)—N^6-(3,3-dimethyl-butyl)-(4S*,7R*)-[4,7-ethenylene-spiro[2.4]heptane]-5,6-dicarboxamide]"
0.147,6.94,"CN1CCC(NC(=O)[C@H]2[C@H](C(=O)Nc3ccc(Br)cc3)[C@@H]3C=C[C@H]2C32CC2)CC1 (racemic) [Example 86, (5R*)—N^5-(4-Bromophenyl)-(6R*)—N^6—(N-methyl-piperidin-4-yl)-(4S*,7R*)-[4,7-ethenylene-spiro[2.4]heptane]-5,6-dicarboxamide]"
0.156,2.21,"O=C(NCCCN1CCOCC1)[C@H]1[C@H](C(=O)Nc2ccc(Br)cc2)[C@@H]2C=C[C@H]1C21CC1 (racemic) [Example 87, (5R*)—N^5-(4-Bromophenyl)-(6R*)—N^6-(3-morpholino-propyl)-(4S*,7R*)-[4,7-ethenylene-spiro[2.4]heptane]-5,6-dicarboxamide]"
0.168,9.42,"Cc1[nH]ncc1CCCNC(=O)[C@H]1[C@H](C(=O)Nc2ccc(Br)cc2)[C@@H]2C=C[C@H]1C21CC1 (racemic) [Example 88, (5R*)—N^5-(4-Bromophenyl)-(6R*)—N^6-(3-(5-methyl-1H-pyrazol-4-yl)-propyl)-(4S*,7R*)-[4,7-ethenylene-spiro[2.4]heptane]-5,6-dicarboxamide]"
0.2,2.98,"CCCN(CC1CC1)C(=O)[C@H]1[C@H](C(=O)Nc2ccc(Br)cc2)[C@@H]2C=C[C@H]1C21CC1 (racemic) [Example 91, (5R*)—N^5-(4-Bromophenyl)-(6R*)—N^6-propyl-N^6-(cyclopropylmethyl)-(4S*,7R*)-[4,7-ethenylene-spiro[2.4]heptane]-5,6-dicarboxamide]"
0.216,> 25,"O=C(NC1CCCCC1)[C@H]1[C@H](C(=O)Nc2ccc(Br)cc2)[C@@H]2C=C[C@H]1C21CC1 (racemic) [Example 93, (5R*)—N^5-(4-Bromophenyl)-(6R*)—N^6-(cyclohexyl)-(4S*,7R*)-[4,7-ethenylene-spiro[2.4]heptane]-5,6-dicarboxamide]"
0.812,0.457,"Cc1onc(-c2ccccc2)c1CNC(=O)[C@H]1[C@H](C(=O)Nc2ccc(Br)cc2)[C@@H]2C=C[C@H]1C21CC1 (racemic) [Example 101, (5R*)—N^5-(4-Bromophenyl)-(6R*)—N^6-[(5-methyl-3-phenyl-isoxazol-4-yl)-methyl]-(4S*,7R*)-[4,7-ethenylene-spiro[2.4]heptane]-5,6-dicarboxamide]"
0.00046,> 25,"NC(=O)CCNC(=O)[C@H]1[C@H](C(=O)Nc2ccc(Br)cc2)[C@@H]2CC[C@H]1C21CC1 (racemic) [Example 102, (5R*)—N^5-(4-Bromophenyl)-(6R*)—N^6-(2-carbamoyl-ethyl)-(4S*,7R*)-[4,7-ethylene-spiro[2.4]heptane]-5,6-dicarboxamide]"
0.0048,6.92,"COCCCNC(=O)[C@H]1[C@H](C(=O)Nc2ccc(Br)cc2)[C@@H]2CC[C@H]1C21CC1 (racemic) [Example 103, (5R*)—N^5-(4-Bromophenyl)-(6R*)—N^6-(3-methoxy-propyl)-(4S*,7R*)-[4,7-ethylene-spiro[2.4]heptane]-5,6-dicarboxamide]"

SMILES,EC50 (human ALX receptor) [µM],EC50 (human FPRL2) [µM]
"CC(C)(C)OC(=O)CCCNC(=O)[C@H]1[C@H](C(=O)Nc2ccc(Br)cc2)[C@@H]2C=C[C@H]1C21CC1 (racemic) [Example 89, (5R*)—N^5-(4-Bromophenyl)-(6R*)—N^6-(3-tert-butoxycarbonyl-propyl)-(4S*,7R*)-[4,7-ethenylene-spiro[2.4]heptane]-5,6-dicarboxamide]",0.191,2.47
"CC(C)(C)OC(=O)NCc1cccc(CNC(=O)[C@H]2[C@H](C(=O)Nc3ccc(Br)cc3)[C@@H]3C=C[C@H]2C32CC2)c1 (racemic) [Example 90, (5R*)—N^5-(4-Bromophenyl)-(6R*)—N^6-{[(3-N-tert-butoxycarbonyl-aminomethyl)-phenyl]-methyl}-(4S*,7R*)-[4,7-ethenylene-spiro[2.4]heptane]-5,6-dicarboxamide]",0.194,2.26
"CC(C)(C)OC(=O)N1CCC(CNC(=O)[C@H]2[C@H](C(=O)Nc3ccc(Br)cc3)[C@@H]3C=C[C@H]2C32CC2)CC1 (racemic) [Example 92, (5R*)—N^5-(4-Bromophenyl)-(6R*)—N^6—(N-tert-butoxycarbonyl-piperidin-4-yl-methyl)-(4S*,7R*)-[4,7-ethenylene-spiro[2.4]heptane]-5,6-dicarboxamide]",0.204,2.67
"CC(C)(C)OC(=O)N1CCC(NC(=O)[C@H]2[C@H](C(=O)Nc3ccc(Br)cc3)[C@@H]3C=C[C@H]2C32CC2)CC1 (racemic) [Example 94, (5R*)—N^5-(4-Bromophenyl)-(6R*)—N^6—(N-tert-butoxycarbonyl-piperidin-4-yl)-(4S*,7R*)-[4,7-ethenylene-spiro[2.4]heptane]-5,6-dicarboxamide]",0.218,1.04
"CC(C)(C)OC(=O)NCc1ccc(CNC(=O)[C@H]2[C@H](C(=O)Nc3ccc(Br)cc3)[C@@H]3C=C[C@H]2C32CC2)cc1 (racemic) [Example 97, (5R*)—N^5-(4-Bromophenyl)-(6R*)—N^6-[(4-N-tert-butoxycarbonyl-aminomethyl-phenyl)-methyl]-(4S*,7R*)-[4,7-ethenylene-spiro[2.4]heptane]-5,6-dicarboxamide]",0.391,1.43
"CC(C)(C)OC(=O)N1CC(NC(=O)[C@H]2[C@H](C(=O)Nc3ccc(Br)cc3)[C@@H]3C=C[C@H]2C32CC2)C1 (racemic) [Example 98, (5R*)—N^5-(4-Bromophenyl)-(6R*)—N^6—(N-tert-butoxycarbonyl-azetidin-3-yl)-(4S*,7R*)-[4,7-ethenylene-spiro[2.4]heptane]-5,6-dicarboxamide]",0.477,0.582

# Reference: patent US8563714B2, “Bridged spiro [2.4] heptane derivatives as ALX receptor and/or FPRL2 agonists” (Actelion Pharmaceuticals Ltd., priority 2009, dated 2013)
